This is an account of results in article PMC11067709 (Clinical and Translational Science, 2024).

Like-named read-outs stand apart in the source and are kept apart here.

The conditions of series [1]: cited from earlier work; for intra‐subject variability for the PK parameter (C max): NSAIDs, ref previously reported.
The subject of series [2] is CYP2D6. The conditions noted are these: CYP isoform 2D6; cited from earlier work.
Series [3] can be described thus: Pharmacokinetic interaction study, fexuprazan and celecoxib. The series is classed as in vivo, healthy Korean male subjects. The conditions noted are these: 5 days; for Tmax: T max,ss; for Tmax / T max,ss: median [minimum–maximum]; for Vd/F: V ss/F.
The conditions of series [4]: for AUCτ,ss / C max,ss / MR, metabolic ratio of fexuprazan (AUCτ,M14/AUCτ,fexuprazan) / V ss/F / t 1/2 / T max,ss: 5 days; for AUCτ,ss / C max,ss / MR, metabolic ratio of fexuprazan (AUCτ,M14/AUCτ,fexuprazan) / V ss/F / t 1/2: mean ± SD; for T max,ss: median [minimum–maximum].
Series [5] can be described thus: Safety and tolerability, adverse events, Cohort 2. It counts as in vivo, healthy Korean male subjects.
The conditions of series [6]: cited from earlier work.
Series [7] is described as follows: Safety and tolerability, adverse events, Cohort 1. It counts as in vivo, healthy Korean male subjects.
Series [8] has as its system uptake or efflux transporters. The conditions noted are these: cited from earlier work.
The conditions of series [9]: for T max: median [minimum–maximum].
In series [10] the test system is transporters. To be noted: at the effective dose of 40 mg; cited from earlier work.
Series [11] is described as follows: Safety and tolerability, adverse events, Cohort 3. The series is classed as in vivo, healthy Korean male subjects.
The subject of series [12] is CYP2C9. To be noted: CYP isoform 2C9; cited from earlier work.
A short description of series [13]: clinical. To be noted: male, human, in vivo, po, 15 mg, T max,ss, 7 days, Arm E, median [minimum–maximum].
The mark [14] stands for this setting: combination: fexuprazan 40 mg BID + naproxen 500 mg BID, Arm D.
Where [15] appears, read: monotherapy: fexuprazan 40 mg BID, Arm D (Cohort 2).
Setting [16] is: combination: fexuprazan 40 mg BID + meloxicam 15 mg QD, 7 days, Arm F, mean ± SD.
Where [17] appears, read: monotherapy: fexuprazan 40 mg BID, 5 days, Arm F (Cohort 3), mean ± SD.
The mark [18] stands for this setting: combination: fexuprazan 40 mg BID + celecoxib 200 mg BID, Arm B, mean ± SD.
Setting [19] is: monotherapy: fexuprazan 40 mg BID, Arm B (Cohort 1), mean ± SD.

Take `Cc1ccc(-c2cc(C(F)(F)F)nn2-c2ccc(S(N)(=O)=O)cc2)cc1` [Celecoxib]: the “intra‐subject variability for the PK parameter (C max)” value (from here on “intra‐subject variability”) in series [1] is 31.8%. Besides, the “elimination half‐life” value in series [1] (celecoxib) is listed as 12.4 h. Moreover, the “inhibitory effect of NSAIDs on the CYP isoform” value in [2] is given as “moderate inhibitory effects”. Besides, the AUC in series [3] (male, human, plasma, po, 200 mg, AUCτ,ss, combination: celecoxib 200 mg BID + fexuprazan 40 mg BID, Arm A, mean ± SD) is 8110 ± 2550 ng·h/mL. The peak concentration (Cmax) in series [3] (male, human, plasma, po, 200 mg, C max,ss, monotherapy: celecoxib 200 mg BID, Arm A, mean ± SD) was 1080 ± 315 ng/mL. Moreover, the Tmax in series [3] (male, human, plasma, po, 200 mg, combination: celecoxib 200 mg BID + fexuprazan 40 mg BID, Arm A) worked out at 3 h; in series [3] (male, human, plasma, po, 200 mg, monotherapy: celecoxib 200 mg BID, Arm A) it was 2.5 h. For the same compound, the Vd/F is 358 ± 126 L in [3] (male, human, plasma, po, 200 mg, combination: celecoxib 200 mg BID + fexuprazan 40 mg BID, Arm A, mean ± SD) and 416 ± 235 L in series [3] (male, human, plasma, po, 200 mg, monotherapy: celecoxib 200 mg BID, Arm A, mean ± SD). In addition, the half-life in series [3] (male, human, plasma, po, 200 mg, t 1/2, combination: celecoxib 200 mg BID + fexuprazan 40 mg BID, Arm A, mean ± SD) is 570 ± 198 min; in [3] (male, human, plasma, po, 200 mg, t 1/2, monotherapy: celecoxib 200 mg BID, Arm A, mean ± SD) it was 564 ± 300 min.
Regarding `CNCc1cn(S(=O)(=O)c2cccc(F)c2)c(-c2ccc(F)cc2F)c1OC` [Fexuprazan], the “AUCτ,ss” value was determined as 728.7 ± 463.2 µg·h/L in series [4] (setting [14]); 591.7 ± 271.7 µg·h/L in series [4] (setting [15]); 674.7 ± 379.2 µg·h/L in series [9] (setting [16]); 728.3 ± 403.5 µg·h/L in [9] (setting [17]); 570.2 ± 255.7 µg·h/L in [3] (setting [18]); 555.3 ± 239.6 µg·h/L in series [3] (setting [19]). The “C max,ss” value in [4] (setting [14]) was 89.2 ± 52.5 µg/L; in series [4] (setting [15]), 72.5 ± 37.0 µg/L; in [9] (setting [16]), 83.2 ± 46.2 µg/L; in series [9] (setting [17]) it was 82.8 ± 45.5 µg/L; in [3] (setting [18]), 71.3 ± 32.4 µg/L; in [3] (setting [19]) it was 65.6 ± 30.1 µg/L. Also, the “MR, metabolic ratio of fexuprazan (AUCτ,M14/AUCτ,fexuprazan)” value in series [4] (setting [14]) is listed as 2.03 ± 1.25; in series [4] (setting [15]), 2.65 ± 1.22; in series [9] (setting [17]) it was 2.50 ± 1.64; in series [3] (setting [18]) it was 3.82 ± 2.72; in series [3] (setting [19]), 3.56 ± 2.50. Besides, the “V ss/F” value in series [4] (setting [14]) is reported as 808.9 ± 503.9 L; in series [4] (setting [15]), 1028.6 ± 506.2 L; in series [9] (setting [16]) it was 1427.7 ± 1984.4 L; in [9] (setting [17]) it was 1161.1 ± 1231.1 L; in series [3] (setting [18]) it was 1136.7 ± 730.7 L; in series [3] (setting [19]), 1203.2 ± 788.6 L. Besides, the “t 1/2” value was 7.8 ± 1.1 h in series [4] (setting [14]); 8.6 ± 0.9 h in [4] (setting [15]); 8.6 ± 2.1 h in series [9] (setting [16]); 9.6 ± 2.2 h in [9] (setting [17]); 8.5 ± 0.8 h in series [3] (setting [18]); 8.7 ± 1.2 h in [3] (setting [19]). For the same compound, the “T max,ss” value was 3.0 [1.5–4.0] h in series [4] (setting [14]); 2.5 [1.0–6.0] h in series [4] (setting [15]); 2.5 [1.0–6.0] h in series [3] (combination: fexuprazan 40 mg BID + celecoxib 200 mg BID, Arm B); 3.0 [1.0–6.0] h in series [3] (monotherapy: fexuprazan 40 mg BID, Arm B (Cohort 1)). For the same compound, the “increase in systemic exposure” value in series [4] (fexuprazan co-administered with naproxen vs fexuprazan alone) was “approximately 20%”. The “Summary of AEs: number of events” value is listed as “six” in series [5] and “eight” in [11]. The “percentage of subjects with AEs” value in series [5] came out at 33.3%; in series [7] it was 33.3%; in series [11], 23.5%. Also, the “elimination half‐life” value in [1] (fexuprazan) is 7.5 to 9.5 h. The “multiple dose with established safety and tolerability” value in [6] (multiple doses for 7 days) is “up to 160 mg”. Moreover, in series [6] (single dose), the “single dose with established safety and tolerability” value was “up to 320 mg”. For the same compound, the “substrate for uptake or efflux transporters” value in series [8] was “not a substrate”. Besides, the T max in series [9] (combination: fexuprazan 40 mg BID + meloxicam 15 mg QD, 7 days, Arm F) was 2.5 [1.5–4.0] h; in series [9] (monotherapy: fexuprazan 40 mg BID, 5 days, Arm F (Cohort 3)), 2.5 [1.5–8.0] h. Moreover, the “potential for inhibitory effects on transporters” value in series [10] was “low potential”.
Turning to `Cc1cnc(NC(=O)C2=C(O)c3ccccc3S(=O)(=O)N2C)s1` [Meloxicam], the “inhibitory effect of NSAIDs on the CYP isoform” value in [12] is given as “relatively weak inhibitor”. Further, the “intra‐subject variability” value in series [1] is on record as 9.8%. Further, the Tmax in series [13] (combination: meloxicam 15 mg QD + fexuprazan 40 mg BID) stood at 4.5 h; in [13] (monotherapy: meloxicam 15 mg QD) it was 5 h.
As for `COc1ccc2cc([C@H](C)C(=O)O)ccc2c1` [Naproxen], the “intra‐subject variability” value in [1] is listed as 8.4%.

For orientation: AUC means the area under the concentration-time curve, a measure of exposure. Usually Cmax stands for the highest concentration seen after dosing. By Tmax is commonly meant the time from dosing to the highest level. As a reminder, the Vd/F is the apparent distribution volume after extravascular dosing. One may read the half-life as the time needed for the level to fall by half in the phase considered.
